Legend:
[1] = target: 72 kDa type IV collagenase (Homo sapiens, UniProt P08253); assay: Inhibition of human matrix metalloprotease-2
[2] = target: Matrix metalloproteinase-9 (Homo sapiens, UniProt P14780); assay: Inhibition of human matrix metalloprotease-9
[3] = target: Matrix metalloproteinase-14 (Homo sapiens, UniProt P50281); assay: Inhibition of human matrix metalloprotease-14
[4] = target: Stromelysin-1 (Homo sapiens, UniProt P08254); assay: Inhibition of human matrix metalloprotease-3
[5] = target: T1, Matrilysin (Homo sapiens, UniProt P09237); assay: Inhibition of human matrix metalloprotease-7
T1 sequence (P09237 whole entry): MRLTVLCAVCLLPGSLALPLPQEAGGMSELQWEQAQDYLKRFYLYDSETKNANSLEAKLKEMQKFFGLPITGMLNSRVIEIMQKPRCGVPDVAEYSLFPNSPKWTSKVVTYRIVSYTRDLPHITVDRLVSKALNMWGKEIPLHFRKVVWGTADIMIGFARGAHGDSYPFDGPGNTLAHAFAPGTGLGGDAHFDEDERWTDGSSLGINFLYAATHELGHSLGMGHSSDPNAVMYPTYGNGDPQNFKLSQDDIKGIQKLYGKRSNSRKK

[6] = target: Neutrophil collagenase (Homo sapiens, UniProt P22894); assay: Inhibition of human matrix metalloprotease-8
Chain of Neutrophil collagenase (P22894 whole entry): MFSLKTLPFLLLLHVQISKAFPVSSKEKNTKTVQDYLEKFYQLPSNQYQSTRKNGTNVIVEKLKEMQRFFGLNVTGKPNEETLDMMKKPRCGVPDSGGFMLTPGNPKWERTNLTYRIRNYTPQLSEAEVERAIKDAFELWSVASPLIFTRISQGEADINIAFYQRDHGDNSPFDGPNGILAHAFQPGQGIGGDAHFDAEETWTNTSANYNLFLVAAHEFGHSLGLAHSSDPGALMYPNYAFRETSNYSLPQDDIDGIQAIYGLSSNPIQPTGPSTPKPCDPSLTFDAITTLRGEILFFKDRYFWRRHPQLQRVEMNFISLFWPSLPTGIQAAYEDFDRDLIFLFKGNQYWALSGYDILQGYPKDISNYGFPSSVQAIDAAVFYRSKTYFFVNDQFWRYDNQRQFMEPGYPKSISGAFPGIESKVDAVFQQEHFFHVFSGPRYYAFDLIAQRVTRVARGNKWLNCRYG

[7] = target: T2, Interstitial collagenase (Homo sapiens, UniProt P03956); assay: Inhibition of human matrix metalloprotease-1
T2 sequence (P03956 whole entry): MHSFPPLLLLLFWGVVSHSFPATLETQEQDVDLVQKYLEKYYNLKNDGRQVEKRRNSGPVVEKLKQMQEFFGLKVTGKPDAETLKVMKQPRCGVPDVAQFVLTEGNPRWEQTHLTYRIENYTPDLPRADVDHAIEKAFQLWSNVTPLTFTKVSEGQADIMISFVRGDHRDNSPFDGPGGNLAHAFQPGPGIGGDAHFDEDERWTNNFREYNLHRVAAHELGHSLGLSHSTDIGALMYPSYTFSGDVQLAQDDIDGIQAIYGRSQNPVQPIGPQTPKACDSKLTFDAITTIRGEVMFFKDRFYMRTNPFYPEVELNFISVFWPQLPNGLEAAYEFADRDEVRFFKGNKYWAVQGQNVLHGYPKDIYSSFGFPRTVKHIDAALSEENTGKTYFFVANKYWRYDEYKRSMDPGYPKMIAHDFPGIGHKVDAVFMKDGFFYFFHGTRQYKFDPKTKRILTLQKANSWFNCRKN

Chain of 72 kDa type IV collagenase (P08253 whole entry): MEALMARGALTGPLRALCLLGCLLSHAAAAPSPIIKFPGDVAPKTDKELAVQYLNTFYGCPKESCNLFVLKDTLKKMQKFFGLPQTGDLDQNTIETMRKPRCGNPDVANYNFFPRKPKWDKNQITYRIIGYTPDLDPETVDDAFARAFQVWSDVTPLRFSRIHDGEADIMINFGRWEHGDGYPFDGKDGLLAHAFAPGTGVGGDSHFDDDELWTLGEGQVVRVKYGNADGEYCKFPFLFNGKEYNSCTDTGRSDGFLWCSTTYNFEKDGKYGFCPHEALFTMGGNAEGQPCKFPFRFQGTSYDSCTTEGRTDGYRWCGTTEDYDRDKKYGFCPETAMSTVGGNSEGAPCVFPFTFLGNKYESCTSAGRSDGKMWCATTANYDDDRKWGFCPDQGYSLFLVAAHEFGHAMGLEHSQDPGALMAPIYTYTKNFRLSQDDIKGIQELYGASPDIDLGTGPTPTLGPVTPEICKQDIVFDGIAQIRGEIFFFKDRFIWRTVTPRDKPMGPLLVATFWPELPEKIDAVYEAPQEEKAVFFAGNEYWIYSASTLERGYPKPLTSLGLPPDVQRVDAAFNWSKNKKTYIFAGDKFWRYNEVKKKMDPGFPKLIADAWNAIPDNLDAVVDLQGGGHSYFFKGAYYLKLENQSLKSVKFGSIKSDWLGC
Chain of Matrix metalloproteinase-9 (P14780 whole entry): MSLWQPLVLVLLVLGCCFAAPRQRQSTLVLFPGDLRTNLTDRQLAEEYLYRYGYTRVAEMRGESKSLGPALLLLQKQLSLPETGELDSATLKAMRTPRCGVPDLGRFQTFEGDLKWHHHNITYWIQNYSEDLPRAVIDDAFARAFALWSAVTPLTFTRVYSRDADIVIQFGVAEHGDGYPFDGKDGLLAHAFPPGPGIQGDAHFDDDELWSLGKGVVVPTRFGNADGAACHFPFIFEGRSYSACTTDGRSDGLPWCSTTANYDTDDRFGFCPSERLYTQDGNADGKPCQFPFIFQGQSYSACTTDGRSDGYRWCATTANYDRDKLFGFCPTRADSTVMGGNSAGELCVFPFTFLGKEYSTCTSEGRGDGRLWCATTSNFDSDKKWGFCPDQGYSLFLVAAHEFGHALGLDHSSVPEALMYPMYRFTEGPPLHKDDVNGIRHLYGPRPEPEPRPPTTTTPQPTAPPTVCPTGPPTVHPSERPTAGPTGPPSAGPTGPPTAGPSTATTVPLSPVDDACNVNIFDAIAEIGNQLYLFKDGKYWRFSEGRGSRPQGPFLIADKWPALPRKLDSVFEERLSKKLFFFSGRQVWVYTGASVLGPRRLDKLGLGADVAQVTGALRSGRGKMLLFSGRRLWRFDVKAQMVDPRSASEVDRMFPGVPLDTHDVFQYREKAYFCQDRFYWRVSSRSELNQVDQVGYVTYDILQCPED
Chain of Stromelysin-1 (P08254 whole entry): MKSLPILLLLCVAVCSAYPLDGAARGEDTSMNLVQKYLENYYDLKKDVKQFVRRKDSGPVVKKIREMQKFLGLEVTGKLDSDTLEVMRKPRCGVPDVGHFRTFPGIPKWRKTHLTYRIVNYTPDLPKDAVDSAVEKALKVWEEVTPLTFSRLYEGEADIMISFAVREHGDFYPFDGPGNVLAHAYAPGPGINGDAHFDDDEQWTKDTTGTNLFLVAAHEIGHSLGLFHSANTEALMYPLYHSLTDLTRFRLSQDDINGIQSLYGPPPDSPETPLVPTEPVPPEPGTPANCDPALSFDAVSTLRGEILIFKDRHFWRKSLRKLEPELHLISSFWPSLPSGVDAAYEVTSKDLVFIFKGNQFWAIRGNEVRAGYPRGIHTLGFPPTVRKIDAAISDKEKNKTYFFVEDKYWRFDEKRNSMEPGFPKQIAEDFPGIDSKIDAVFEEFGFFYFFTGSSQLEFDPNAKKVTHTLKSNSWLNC

SMILES | IC50 [1] [nM] | IC50 [2] [nM] | IC50 [3] [nM] | IC50 [4] [nM] | IC50 [5] [nM] | IC50 [6] [nM] | IC50 [7] [µM]
CC(C)ON([C@H](C(=O)NO)C(C)C)S(=O)(=O)c1ccc(-c2ccccc2)cc1 | 10.3 | 13 | – | – | – | – | –
CC(C)ON([C@@H](C(=O)NO)C(C)C)S(=O)(=O)c1ccc(-c2ccccc2)cc1 | 0.09 | 6.7 | 9.8 | 50 | > 11100 | 1.6 | –
CC1(C)SCCN(S(=O)(=O)c2ccc(Oc3ccncc3)cc2)[C@H]1C(=O)NO [PRINOMASTAT] | – | – | 0.3 | – | 54 | – | –
COc1ccc(S(=O)(=O)N(Cc2cccnc2)[C@@H](C(=O)NO)C(C)C)cc1 [CGS-27023A] | – | – | 8.9 | – | 100 | – | –
CC(C)ON(CC(=O)NO)S(=O)(=O)c1ccc(-c2ccccc2)cc1 | 12 | 200 | > 10000 | 4500 | > 50000 | – | > 50
CC(C)ON([C@H](CCN)C(=O)NO)S(=O)(=O)c1ccc(-c2ccccc2)cc1 | 935 | 4520 | > 300 | – | – | – | –
CC(C)ON([C@H](CCNC(=O)OCc1ccccc1)C(=O)NO)S(=O)(=O)c1ccc(-c2ccccc2)cc1 | 0.41 | 16 | 7.7 | 130 | > 24400 | – | > 3
CC(C)ON(C(C(=O)NO)C(C)C)S(=O)(=O)c1ccc(-c2ccccc2)cc1 (racemic) | 1.8 | 19.6 | – | – | – | – | –
